Laboratory results: publication PMC7761018, “Green Tea Catechins Induce Inhibition of PTP1B Phosphatase in Breast Cancer Cells with Potent Anti-Cancer Properties: In Vitro Assay, Molecular Docking, and Dynamics Studies” (Antioxidants, 2020)

Molecular target: T1, PTP1B (Homo sapiens, UniProt P18031)
T1 construct: gene PTPN1
T1 sequence (P18031 1-435): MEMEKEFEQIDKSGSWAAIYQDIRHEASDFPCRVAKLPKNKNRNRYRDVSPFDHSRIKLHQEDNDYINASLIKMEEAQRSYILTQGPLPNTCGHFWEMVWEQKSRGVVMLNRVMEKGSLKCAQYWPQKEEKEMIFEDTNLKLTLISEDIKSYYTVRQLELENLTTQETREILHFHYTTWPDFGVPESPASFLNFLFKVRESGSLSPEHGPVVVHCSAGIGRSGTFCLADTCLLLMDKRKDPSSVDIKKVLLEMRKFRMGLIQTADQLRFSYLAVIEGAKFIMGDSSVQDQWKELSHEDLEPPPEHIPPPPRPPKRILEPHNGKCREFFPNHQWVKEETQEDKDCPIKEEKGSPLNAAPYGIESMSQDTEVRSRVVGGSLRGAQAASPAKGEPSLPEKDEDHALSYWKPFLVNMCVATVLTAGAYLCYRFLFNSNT
Test: recombinant PTP1B pNPP hydrolysis assay, absorbance at […] nm
Type: biochemical

IC50: 104 ± 10.1 µM
Structure (SMILES): Oc1cc(O)c2c(c1)O[C@H](c1cc(O)c(O)c(O)c1)[C@H](O)C2 [EGC, epigallocatechin]
